Assay results taken from paper PMC7504104, “Dietary Intake of Rosmarinic Acid Increases Serum Inhibitory Activity in Amyloid A Aggregation and Suppresses Deposition in the Organs of Mice” (International Journal of Molecular Sciences, 2020).

Biological target: T1, recombinant mouse SAA 1.1 (mSAA) (Mus musculus, UniProt P05366)
T1 construct: gene Saa1; cDNA in pET-15b, expressed in E. coli Rosetta, Ni Sepharose purified
T1 sequence (P05366 20-122): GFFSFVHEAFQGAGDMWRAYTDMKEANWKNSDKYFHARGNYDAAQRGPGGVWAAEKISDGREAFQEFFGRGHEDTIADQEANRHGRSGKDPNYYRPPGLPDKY
Assay: quantum-dot fluorescence imaging of amyloid aggregation inhibition (MSHTS)
Format: biochemical

EC50: 33.2 ± 2.19 µM
SMILES: O=C(/C=C/c1ccc(O)c(O)c1)O[C@H](Cc1ccc(O)c(O)c1)C(=O)O [RA, rosmarinic acid]
